Among the test systems are SK-MEL-28; OVCAR-4; SF-295; HCT-116; SK-MEL-2; MDA-MB-231; T47D; HCT-15; A498; SR; SK-OV-3; UACC-62; BT-549; MDA-MB-435; HT-29; RXF 393; SF-268; 786-0; TK-10; COLO 205.
What all share (experiment): inhibition of tumour cell growth, NCI panel, 48 h

Molecules are shown by their SMILES.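 Briefly, cells in 96-well plates were exposed to five compound concentrations for 48 h, and endpoints were estimated by linear interpolation. GI50 marks 50% less growth.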 Activity calls are given as the source filed them. Rule as the data show it: active = GI50 up to about 1.1 µM and inactive = higher. Bounds are passed on as bounds.

Consider `CC1=CC(=O)CC(C)(C)C1(O)/C=C/C(C)=C/C(=O)O` (stereo not given), for which the GI50 in the test on SK-MEL-28, with OVCAR-4, in the test on SF-295, with HCT-116, in the test with SK-MEL-2 and with MDA-MB-231 was > 100 µM (inactive) each time. The GI50 was > 100 µM (inactive) with T47D; over 100 µM with HCT-15; > 100 µM (inactive) in the test with A498; > 100 µM (inactive) with SR; > 100 µM (inactive) with SK-OV-3; > 100 µM (inactive) with UACC-62. Further, the GI50 in the test on BT-549, in the test on MDA-MB-435, with HT-29, in the test on RXF 393, in the test on SF-268 and in the test with 786-0 was > 100 µM (inactive) each time. In addition, the GI50 in the test on TK-10 and in the test on COLO 205 was > 100 µM (inactive) each time.

In the case of `O=c1[nH]nc(-c2ccccc2)n1/N=C/c1ccc([N+](=O)[O-])cc1`, the GI50 is > 100 µM (inactive) in the test on SK-MEL-28; 3.85 µM (inactive) in the test with OVCAR-4; 27.2 µM (inactive) in the test with SF-295; 25 µM (inactive) in the test on HCT-116; 19.1 µM (inactive) in the test on SK-MEL-2; > 33.2 µM (inactive) with MDA-MB-231. For the same compound, the GI50 in the test with T47D is 13.8 µM (inactive); in the test on HCT-15 it was over 100 µM; in the test on A498, 14.6 µM (inactive); in the test with SR, > 100 µM (inactive); in the test on SK-OV-3 it was 2.94 µM (inactive); in the test on UACC-62 it was > 53.8 µM (inactive). In addition, the GI50 is > 100 µM (inactive) in the test with BT-549; > 100 µM (inactive) with MDA-MB-435; > 100 µM (inactive) in the test on HT-29; 8.43 µM (inactive) in the test on RXF 393; 13 µM (inactive) in the test with SF-268; 6.64 µM (inactive) with 786-0. In addition, the GI50 with TK-10 was 20 µM (inactive); in the test on COLO 205, > 100 µM (inactive).

As to `NC(=S)NN=Cc1ccccc1OCc1cccc(COc2ccccc2C=NNC(N)=S)n1`, the GI50 with SK-MEL-28 is > 100 µM (inactive); with OVCAR-4 it was > 100 µM (inactive); in the test on SF-295 it was 6.85 µM (inactive); in the test with HCT-116 it was 32.7 µM (inactive); in the test on SK-MEL-2, 6.89 µM (inactive); with MDA-MB-231, 6.92 µM (inactive). The GI50 with T47D is > 38.2 µM (inactive); in the test on HCT-15, over 61.2 µM; in the test on A498, 17.5 µM (inactive); with SR, > 100 µM (inactive); in the test on SK-OV-3 it was 9.89 µM (inactive); in the test with UACC-62, 19.3 µM (inactive). Further, the GI50 was 13.6 µM (inactive) with BT-549; > 100 µM (inactive) in the test with MDA-MB-435; > 100 µM (inactive) in the test with HT-29; 2.4 µM (inactive) in the test with RXF 393; 5.46 µM (inactive) in the test with SF-268; 12.4 µM (inactive) with 786-0. The results for the GI50 with TK-10 and in the test on COLO 205 were 14.4 µM (inactive) and > 87.7 µM (inactive), respectively.

For the compound `Cn1c2ccccc2c2[nH]c3ccccc3c(=O)c21`, the GI50 with SK-MEL-28 was > 100 µM (inactive); in the test with OVCAR-4, > 10 µM (inactive); in the test on SF-295 it was > 100 µM (inactive); in the test with HCT-116, 53.3 µM (inactive); with SK-MEL-2, > 100 µM (inactive); in the test with MDA-MB-231, > 100 µM (inactive). In addition, the GI50 in the test on T47D was 43 µM (inactive); in the test on HCT-15, over 100 µM; in the test on A498, > 100 µM (inactive); in the test with SR, > 100 µM (inactive); in the test on SK-OV-3, > 100 µM (inactive); in the test with UACC-62, > 100 µM (inactive). Moreover, the GI50 in the test on BT-549, in the test with MDA-MB-435, in the test with HT-29, in the test on RXF 393, in the test with SF-268 and in the test with 786-0 was > 100 µM (inactive) each time. Also, the GI50 in the test on TK-10 and in the test with COLO 205 was > 100 µM (inactive) throughout.

Take `CC(=O)O[C@H]1CC[C@@]2(C)C(=CC[C@@H]3[C@@H]2CC[C@]2(C)C(=N/O)/C(=C\c4ccccc4)C[C@@H]32)C1`: the GI50 was 12.7 µM (inactive) in the test on SK-MEL-28; 30.1 µM (inactive) in the test on OVCAR-4; 14.8 µM (inactive) in the test on SF-295; 6.12 µM (inactive) with HCT-116; 13 µM (inactive) in the test with SK-MEL-2; 20.5 µM (inactive) in the test on MDA-MB-231. For the same compound, the GI50 is 7.53 µM (inactive) in the test with T47D; 16.5 µM with HCT-15; 13.4 µM (inactive) in the test on A498; 3.27 µM (inactive) in the test on SR; 28.9 µM (inactive) in the test with SK-OV-3; 5.94 µM (inactive) in the test on UACC-62. Further, the GI50 is 16.5 µM (inactive) in the test on BT-549; 3.89 µM (inactive) in the test with MDA-MB-435; 3.99 µM (inactive) in the test with HT-29; 9.48 µM (inactive) in the test on RXF 393; 24.2 µM (inactive) in the test with SF-268; 13.9 µM (inactive) in the test on 786-0. In addition, the GI50 in the test with TK-10 is 24.2 µM (inactive); with COLO 205, 10.6 µM (inactive).

Turning to `CC(C)(C)c1cc(C2=NNC(c3ccccc3)C2)cc(C(C)(C)C)c1O` (stereo not given), the GI50 in the test with SK-MEL-28 is 15.9 µM (inactive); in the test with OVCAR-4, 14.2 µM (inactive); in the test on SF-295, 16.5 µM (inactive); with HCT-116 it was 14.2 µM (inactive); in the test with SK-MEL-2, 14.8 µM (inactive); with MDA-MB-231 it was 14.2 µM (inactive). The GI50 with T47D is 10.2 µM (inactive); in the test on HCT-15 it was 13.8 µM; with A498 it was 15.3 µM (inactive); in the test with SR, 5.58 µM (inactive); in the test with SK-OV-3, 18.5 µM (inactive); in the test with UACC-62, 13.5 µM (inactive). Besides, the GI50 in the test with BT-549 was 17.1 µM (inactive); in the test with MDA-MB-435, 12.8 µM (inactive); in the test with HT-29, 17.7 µM (inactive); in the test on RXF 393, 10.1 µM (inactive); in the test with SF-268, 17 µM (inactive); in the test on 786-0, 14.3 µM (inactive). Moreover, the GI50 was 15.9 µM (inactive) in the test with TK-10 and 17.5 µM (inactive) in the test with COLO 205.

`O=P1(c2ccccc2)C(c2ccccc2)=CC=C1c1ccccc1`: the GI50 in the test with SK-MEL-28 is 58.1 µM (inactive); in the test with OVCAR-4, 10.6 µM (inactive); in the test with SF-295, 28.4 µM (inactive); in the test on HCT-116, 9.25 µM (inactive); with SK-MEL-2, 11.3 µM (inactive); with MDA-MB-231, 36.7 µM (inactive). The GI50 in the test on T47D is 8.95 µM (inactive); in the test on HCT-15, 16 µM; in the test on A498 it was 16.8 µM (inactive); in the test on SR, 11.9 µM (inactive); in the test with SK-OV-3, 59.4 µM (inactive); in the test with UACC-62, 18.8 µM (inactive). The GI50 was 18.8 µM (inactive) with BT-549; 12.4 µM (inactive) in the test on MDA-MB-435; 10.3 µM (inactive) in the test with HT-29; 29.9 µM (inactive) with RXF 393; 24.5 µM (inactive) in the test on SF-268; 26 µM (inactive) with 786-0. For the same compound, the GI50 in the test on TK-10 was 13.2 µM (inactive); with COLO 205 it was 15 µM (inactive).

Regarding `CC(C)N/C(=N\C#N)NS(=O)(=O)c1cnccc1NC1CCCCCCC1`, the GI50 in the test with SK-MEL-28, in the test on OVCAR-4, with SF-295, in the test with HCT-116, with SK-MEL-2 and in the test with MDA-MB-231 was > 100 µM (inactive) each time. The GI50 is > 100 µM (inactive) with T47D; over 100 µM in the test with HCT-15; > 100 µM (inactive) in the test on A498; > 100 µM (inactive) in the test on SR; > 100 µM (inactive) in the test on SK-OV-3; > 100 µM (inactive) in the test with UACC-62. Moreover, the GI50 in the test with BT-549, in the test on MDA-MB-435, with HT-29, in the test with RXF 393, in the test on SF-268 and with 786-0 was > 100 µM (inactive) in each case. Besides, the GI50 in the test on TK-10 and in the test on COLO 205 was > 100 µM (inactive) each time.

As to `OC(/C(=N/c1ccccc1)c1ccccc1)c1ccccc1` (stereo not given), the GI50 with SK-MEL-28 was 2.66 µM (inactive); in the test with OVCAR-4, 10.2 µM (inactive); in the test on SF-295 it was 9.71 µM (inactive); in the test with HCT-116 it was 5.37 µM (inactive); in the test on SK-MEL-2 it was 2.26 µM (inactive); with MDA-MB-231 it was 13.8 µM (inactive). The GI50 with T47D is 5.62 µM (inactive); in the test on HCT-15, 29 µM; with A498, 16.1 µM (inactive); with SR, 3.53 µM (inactive); in the test with SK-OV-3 it was 22.2 µM (inactive); with UACC-62, 3.57 µM (inactive). The GI50 with BT-549 was 2.68 µM (inactive); with MDA-MB-435, 2.75 µM (inactive); in the test with HT-29, 5.22 µM (inactive); in the test on RXF 393 it was 12.3 µM (inactive); in the test on SF-268, 4.99 µM (inactive); in the test with 786-0 it was 10.8 µM (inactive). Moreover, the GI50 in the test on TK-10 is 2.72 µM (inactive); with COLO 205, 4.05 µM (inactive).

With `O=C(O)CNCc1c2ccccc2nc2ccccc12`, the GI50 in the test on SK-MEL-28 is 59.6 µM (inactive); with OVCAR-4 it was 31.7 µM (inactive); with SF-295, 48.4 µM (inactive); with HCT-116, 12.1 µM (inactive); with SK-MEL-2, 50.8 µM (inactive); with MDA-MB-231, 43 µM (inactive). Besides, the GI50 with T47D is 31.7 µM (inactive); with HCT-15, 34.4 µM; in the test with A498, 66.1 µM (inactive); in the test with SR it was 7.33 µM (inactive); with SK-OV-3 it was > 76.4 µM (inactive); in the test on UACC-62 it was 44.7 µM (inactive). In addition, the GI50 in the test with BT-549 is 33.4 µM (inactive); with MDA-MB-435 it was 36.6 µM (inactive); in the test on HT-29, 27.3 µM (inactive); with RXF 393 it was 32.4 µM (inactive); in the test with SF-268 it was 32.7 µM (inactive); with 786-0 it was 36 µM (inactive). Moreover, the GI50 is 61.9 µM (inactive) in the test with TK-10 and 41 µM (inactive) in the test on COLO 205.

The values are drawn from ChEMBL document CHEMBL1201862, “PubChem BioAssay data set” (2004).
